Laboratory results from ChEMBL document CHEMBL1201862, “PubChem BioAssay data set” (2004).
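Results reflect a 48-hour exposure of cells in 96-well plates to compound at five concentrations. The concentration for 50% growth inhibition is given as GI50.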 Activity calls are given as the source filed them. Rule as the data show it: active = GI50 up to about 1.1 µM and inactive = higher.

Columns and labels:
Assay in all cases: NCI anticancer screen, dose series, 48 h
[1] = tested on: SNB-19
[2] = tested on: OVCAR-8
[3] = tested on: UO-31
[4] = tested on: Malme-3M
[5] = tested on: SN12C
[6] = tested on: EKVX
[7] = tested on: SK-MEL-2
[8] = tested on: DMS-273
[9] = tested on: HT-29
[10] = tested on: IGROV-1
[11] = tested on: 786-0
[12] = tested on: HCT-116
[13] = tested on: TK-10
[14] = tested on: SNB-78
[15] = tested on: HL-60

Measured: GI50

CN1CC(=O)N2Cc3ccccc3-n3cccc3C2C1 (stereo unspecified)
inactive: [1] > 100 µM | [2] > 100 µM | [3] > 100 µM | [4] > 100 µM | [5] > 100 µM | [6] > 100 µM | [7] > 100 µM | [8] > 100 µM | [9] > 100 µM | [10] > 100 µM | [11] > 100 µM | [12] > 100 µM | [13] > 100 µM | [14] > 100 µM

COc1cccc(C=O)c1[O-].COc1cccc(C=O)c1[O-].[Zn+2]
inactive: [1] > 100 µM | [2] 43.8 µM | [3] 28.2 µM | [4] 69 µM | [5] 39.7 µM | [6] 61.5 µM | [7] 48.9 µM | [8] 60.5 µM | [9] 97.7 µM | [10] 75.2 µM | [11] 49 µM | [12] 44.3 µM | [13] > 100 µM | [14] > 100 µM

O=C1NC(O)n2c(=O)[nH]c(=O)n21 (stereo unspecified)
inactive: [1] > 100 µM | [2] > 100 µM | [3] > 100 µM | [5] > 100 µM | [6] > 100 µM | [7] > 100 µM | [8] > 100 µM | [15] 71 µM | [9] > 100 µM | [10] > 100 µM | [11] > 100 µM | [12] > 100 µM | [13] > 100 µM | [14] > 100 µM

COc1ccccc1C1c2cc3c(cc2OC(O)(CO)C1C(=O)O)OCO3.COc1ccccc1C1c2cc3c(cc2OC2(O)COC(=O)C12)OCO3 (stereo unspecified)
inactive: [2] > 100 µM | [3] > 100 µM | [4] > 100 µM | [5] > 100 µM | [6] > 100 µM | [7] > 100 µM | [8] > 100 µM | [15] 95.1 µM | [9] > 100 µM | [10] > 100 µM | [11] > 100 µM | [12] > 100 µM | [13] > 100 µM | [14] > 100 µM

COc1ccc(NC(=O)CC(=O)N2N=C(N(CCC#N)c3cccc(C)c3)CC2c2ccccc2)cc1 (stereo unspecified)
inactive: [1] > 100 µM | [2] > 100 µM | [3] > 100 µM | [4] > 100 µM | [5] > 100 µM | [6] > 100 µM | [7] > 100 µM | [8] > 100 µM | [15] > 100 µM | [9] > 100 µM | [10] > 100 µM | [11] > 100 µM | [12] > 100 µM | [14] > 100 µM

CC(=O)OCC(OC(C)=O)C(OC(C)=O)C(OC(C)=O)C(=O)CNn1c(-c2ccccc2)nc2ccc(Br)cc2c1=O (stereo unspecified)
inactive: [1] > 100 µM | [2] > 100 µM | [3] > 100 µM | [4] > 100 µM | [5] > 100 µM | [6] > 100 µM | [7] > 100 µM | [8] > 100 µM | [15] > 100 µM | [9] > 100 µM | [11] > 100 µM | [12] > 100 µM | [14] > 100 µM

CC(=O)N(N=O)c1ccc(N(N=O)C(C)=O)cc1
inactive: [1] > 100 µM | [2] > 100 µM | [3] > 100 µM | [4] > 100 µM | [5] > 100 µM | [7] > 100 µM | [8] > 100 µM | [15] > 100 µM | [9] > 100 µM | [10] > 100 µM | [11] > 100 µM | [12] > 100 µM | [14] > 100 µM

COc1ccc2c(c1)C(CCN)C(=O)N2 (stereo unspecified)
inactive: [2] > 100 µM | [4] > 100 µM | [6] > 100 µM | [7] > 100 µM | [8] > 100 µM | [15] > 100 µM | [9] > 100 µM | [10] > 100 µM | [11] > 100 µM | [12] > 100 µM | [13] > 100 µM | [14] > 100 µM

O=C(NCCCCCCCCCCCCNC(=O)c1cnc2ccccc2n1)c1cnc2ccccc2n1
inactive: [1] 14.8 µM | [2] 9.4 µM | [3] 23.9 µM | [4] > 100 µM | [5] 66.1 µM | [6] > 100 µM | [7] > 100 µM | [8] 64.6 µM | [15] > 100 µM | [9] > 100 µM | [10] 54.3 µM | [11] 31.7 µM | [12] 41.5 µM | [14] 76.9 µM

CN(N=O)C(=O)ON1C(=O)CCC1=O
inactive: [1] > 100 µM | [2] > 100 µM | [3] > 100 µM | [4] > 100 µM | [6] > 100 µM | [7] > 100 µM | [8] > 100 µM | [15] > 100 µM | [9] > 100 µM | [10] > 100 µM | [11] > 100 µM | [12] > 100 µM | [13] > 100 µM | [14] > 100 µM
